Values joined by “and” are separate entries in the source; they are usually repeats but may differ in a detail not shown here. Equal entries are not always repeated. Where two headings read alike, the source gives them in different places.
Key:
[1] = system: type L1210 intra-peritoneal lymphoma; assay: Mortality of mice carrying type L1210 intra-peritoneal lymphoma; format: in vivo; conditions: for Ratio % Treated/controls (T/C%): median survival times; for anti-tumour effectiveness (in words): T/C% greater than 125%
Procedure: Mice carrying a type L1210 intra-peritoneal lymphoma were treated for 7 days in parallel with the following preparations: • SYN857 (A): chlorophosphoenol pyruvate • SYN856 (B): chlorophosphoenol pyruvate and carnitine ester • BCNU: carmustine • Vehicle: control
The weight of the animals for each group as well as the individual weight curves as a function of time were plotted and the mortality of the animals was monitored.
The parameter T/C% is calculated with the ratio of the median survival time of the animals in the group considered to the median survival time of the animals in the control group, all multiplied by 100.

Calu-6 [2] = assay: Fraction affected (Fa) and synergy index (CI) on lung cell line Calu-6, betaine citrate/metformin; format: cell-based
Source text: The cell line adopted for carrying out the experiment is the line Calu-6.
These Fa values are used in the calculation of the synergy index (CI) which makes it possible to report the presence or absence of synergy between the products.

Calu-6 [3] = assay: Growth inhibition of Calu-6 cells, products alone (IC50) and in combination (CI, Chou and Talalay); format: cell-based; conditions: for IC50 (order of magnitude, in words): the cell lines tested (Calu-6 and NCI-H460)
Procedure: (§1) 1) Prior determination of the IC50 of the products taken in isolation on the cell lines.
(§2) Different concentration ratios were established, which were tested on the different cell lines.
(§3) For each cell line three tests were carried out.

NCI-H460 = assay: Growth inhibition of NCI-H460 cells, products alone (IC50) and in combination (CI, Chou and Talalay); format: cell-based; conditions: Avandia alone
Procedure: as §1, §2, §3

[4] = product alone at 0.10 mM, three experiments
[5] = product alone at 0.20 mM, three experiments
[6] = product alone at 1.00 mM, three experiments
[7] = product alone at 2.00 mM, three experiments
[8] = product alone at 4.00 mM, three experiments

Row | Molecule | anti-tumour effectiveness (in words) ([1]; L1210 lymphoma mice) | Fa Exp 1 (Calu-6 [2]; product alone at 0.05 mM) | Fa Exp 1 (Calu-6 [2]; product alone at 0.10 mM) | Fa Exp 3 (Calu-6 [2]; product alone at 0.10 mM) | Average Fa (Calu-6 [2]; [4]) | Fa Exp 1 (Calu-6 [2]; product alone at 0.20 mM) | Fa Exp 3 (Calu-6 [2]; product alone at 0.20 mM) | Average Fa (Calu-6 [2]; [5]) | Fa Exp 1 (Calu-6 [2]; product alone at 0.25 mM) | Fa Exp 2 (Calu-6 [2]; product alone at 0.25 mM) | Fa Exp 3 (Calu-6 [2]; product alone at 0.25 mM) | Fa Exp 1 (Calu-6 [2]; product alone at 0.50 mM) | Fa Exp 2 (Calu-6 [2]; product alone at 0.50 mM) | Fa Exp 3 (Calu-6 [2]; product alone at 0.50 mM) | Fa Exp 1 (Calu-6 [2]; product alone at 1.00 mM) | Fa Exp 2 (Calu-6 [2]; product alone at 1.00 mM) | Fa Exp 3 (Calu-6 [2]; product alone at 1.00 mM) | Average Fa (Calu-6 [2]; [6]) | Fa Exp 1 (Calu-6 [2]; product alone at 2.00 mM) | Fa Exp 2 (Calu-6 [2]; product alone at 2.00 mM) | other results
1 | chlorophosphoenol pyruvate [SYN857] | anti-tumour effectiveness |  |  |  |  |  |  |  |  |  |  |  |  |  |  |  |  |  |  |  | Average number of days of survival ± SD ([1]; 70 mg/kg/inj.): 8.78 ± 0.42 days; Median value ([1]; 70 mg/kg/inj.): 9 days; Ratio % Treated/controls (T/C%) ([1]; 70 mg/kg/inj.): >128.5%; Number of dead mice ([1]; 70 mg/kg/inj., out of 10 mice, at 9 days): 9; Average number of days of survival ± SD ([1]; 136 mg/kg/inj.): 9.00 ± 00.0 days; Median value ([1]; 136 mg/kg/inj.): 9 days; Ratio % Treated/controls (T/C%) ([1]; 136 mg/kg/inj.): >128.5%; Number of dead mice ([1]; 136 mg/kg/inj., out of 10 mice, at 9 days): 4
2 | CN(C)C(=N)N=C(N)N [Met, metformin] |  | 0.03 | 0.08 | 0.04 | 0.06 | 0.04 | 0.06 | 0.05 | 0.06 | 0.06 | 0.08 | 0.08 | 0.09 | 0.13 | 0.18 | 0.19 | 0.25 | 0.21 | 0.03 | 0.31 | Average Fa (Calu-6 [2]): 0.07 and 0.10; Fa Exp 2 (Calu-6 [2]; product alone at 0.20 mM): 0.04; Fa Exp 3 (Calu-6 [2]; product alone at 2.00 mM): 0.36; Average Fa (Calu-6 [2]; [7]): 0.32; Fa Exp 1 (Calu-6 [2]; product alone at 4.00 mM): 0.36; Fa Exp 2 (Calu-6 [2]; product alone at 4.00 mM): 0.40; Fa Exp 3 (Calu-6 [2]; product alone at 4.00 mM): 0.46; Average Fa (Calu-6 [2]; [8]): 0.41
3 | CN(CCOc1ccc(CC2SC(=O)NC2=O)cc1)c1ccccn1 (centres unmarked) [Avandia ®, rosiglitazone] |  |  |  |  |  |  |  |  |  |  |  |  |  |  |  |  |  |  |  |  | IC50 (Calu-6 [3]; Calu-6, Avandia alone): 14.1 µM; IC50 (order of magnitude, in words) (Calu-6 [3]): of the order of ten micromols; IC50 (NCI-H460): 8.84 µM
4 | betaine citrate [Betain citrate] |  | 0.00 | 0.00 | 0.00 | 0.02 | 0.12 | 0.00 | 0.01 | 0.02 | 0.08 | 0.00 | 0.31 | 0.15 | 0.26 | 0.59 | 0.18 | 0.63 | 0.24 | 0.69 | 0.37 | IC50 (order of magnitude, in words) (Calu-6 [3]): of the order of a millimol; Fa Exp 2 (Calu-6 [2]; product alone at 0.10 mM): 0.02; Average Fa (Calu-6 [2]; product alone at 0.25 mM, three experiments): 0.06; Average Fa (Calu-6 [2]; product alone at 0.50 mM, three experiments): 0.03; Fa Exp 3 (Calu-6 [2]; product alone at 2.00 mM): 0.77; Average Fa (Calu-6 [2]; [7]): 0.47; Fa Exp 1 (Calu-6 [2]; product alone at 4.00 mM): 0.77; Fa Exp 2 (Calu-6 [2]; product alone at 4.00 mM): 0.61; Fa Exp 3 (Calu-6 [2]; product alone at 4.00 mM): 0.83; Average Fa (Calu-6 [2]; [8]): 0.61
5 | chlorophosphoenol pyruvate and carnitine ester [SYN856] | anti-tumour effectiveness |  |  |  |  |  |  |  |  |  |  |  |  |  |  |  |  |  |  |  | Average number of days of survival ± SD ([1]; 30 mg/kg/inj.): 9.00 ± 0.00 days; Median value ([1]; 30 mg/kg/inj.): 9 days; Ratio % Treated/controls (T/C%) ([1]; 30 mg/kg/inj.): >128.5%; Average number of days of survival ± SD ([1]; 60 mg/kg/inj.): 9.00 ± 0.00 days; Median value ([1]; 60 mg/kg/inj.): 9 days; Ratio % Treated/controls (T/C%) ([1]; 60 mg/kg/inj.): >128.5%; Number of dead mice ([1]; 60 mg/kg/inj., out of 10 mice, at 9 days): 6; effective concentration compared with chlorophosphoenol pyruvate alone (in words) ([1]; L1210 lymphoma mice): effective at a lower concentration than chlorophosphoenol pyruvate alone
6 | O=NN(CCCl)C(=O)NCCCl [BCNU ®, carmustine] |  |  |  |  |  |  |  |  |  |  |  |  |  |  |  |  |  |  |  |  | Ratio % Treated/controls (T/C%) ([1]; 15 mg/kg/inj.): >128.5%; Number of dead mice ([1]; 15 mg/kg/inj., positive control): 0; Number of dead mice ([1]; 15 mg/kg/inj., positive control, listed as BCNU): still alive

— patent US20070280918A1, “Multitherapy Against Cancer” (priority 2004, published 2007)
